Measured values reported in patent publication US6670377B1, “Quinoline derivatives, having in particular antiviral properties, preparation and biological applications thereof” (Centre National de la Recherche, priority 1997, dated 2003).
pEC50, pIC50: −log10 of the molar value. “Also recorded” adds a separate entry of the source.

Tests used:
[1] = molecular target: T1, HIV-1 integrase (Human immunodeficiency virus type 1 group M subtype B, UniProt P04585); test: endonucleolytic cleavage test of HIV-1 integrase (21 bp oligonucleotide); assay type: biochemical; conditions: read-out: endonucleolytic cleavage, concentration necessary to block 50% of the activity of HIV-1 integrase
[2] = molecular target: T1, HIV-1 integrase; test: strand transfer test of HIV-1 integrase; assay type: biochemical; conditions: read-out: strand transfer, concentration necessary to block 50% of the activity of HIV-1 integrase
[3] = molecular target: T1, HIV-1 integrase; test: disintegration test of HIV-1 integrase; assay type: biochemical; conditions: read-out: disintegration, concentration necessary to block 50% of the activity of HIV-1 integrase
[4] = molecular target: T1, HIV-1 integrase; conditions: three tests: endonucleolytic cleavage, strand transfer, disintegration
Protocol: 1—The endonucleolytic activity of the protein is tested on a double-strand oligonucleotide of 21 base pairs, radiolabelled at the 5′ end. The activity of the integrase is expressed by elimination of the dinucleotide at the 3′ end.
2—The strand transfer test is carried out with a double-strand oligonucleotide of 21 base pairs mimicking the end of the viral DNA, the 3′ terminal dinucleotide of which has been supressed. The activity of the protein is expressed by the covalent insertion of this oligonucleotide in a homologous oligonucleotide.
3—The disintegration test is carried out with a substrate mimicking the structure of the integrated viral DNA. The quantity of DNA excised by the integrase is measured. This last test only quantifies the catalytic activity of the protein excluding its fixation activity on the DNA.

[5] = molecular target: T2, reverse transcriptase enzyme of the HIV-1 virus (Human immunodeficiency virus type 1 group M subtype B, UniProt P04585); test: reverse transcriptase activity of lysed viral particles on polyrC/oligo(dG); assay type: biochemical; conditions: polyrC matrix, oligo (dG) primer
T2 construct: endogenous in cells; host or cells: viral particles concentrated from the supernatant of a CEM cell culture, lysed in non-ionic detergent
Protocol: The specificity of the compounds according to the invention for integrase is estimated by an activity test on the reverse transcriptase enzyme of the HIV-1 virus. This test is carried out in the following manner: The viral particles of a supernatant of a CEM cell culture (established lymphocyte line) are concentrated by centrifugation at 30,000 RPM. These viral particles are lysed in a non-ionic detergent and their reverse transcriptase activity is tested on a substrate formed from a hybridized oligo (dG) primer on a polyrC matrix. In the presence of radiolabelled nucleotide dG, the transcriptase activity is expressed by the formation of labelled polynucleotide which can be precipitated in trichloroacetic acid. This confirms that a dideoxynucleotide ddG inhibits the formation of acid precipitatable.

[6] = molecular target: EcoRI restriction enzyme (Escherichia coli, UniProt P00642); test: inhibition of cleavage of linearized pSP65 plasmid by EcoRI; assay type: biochemical; conditions: 4 hours, 0.1 units EcoRI
EcoRI restriction enzyme, sequence (P00642 whole entry): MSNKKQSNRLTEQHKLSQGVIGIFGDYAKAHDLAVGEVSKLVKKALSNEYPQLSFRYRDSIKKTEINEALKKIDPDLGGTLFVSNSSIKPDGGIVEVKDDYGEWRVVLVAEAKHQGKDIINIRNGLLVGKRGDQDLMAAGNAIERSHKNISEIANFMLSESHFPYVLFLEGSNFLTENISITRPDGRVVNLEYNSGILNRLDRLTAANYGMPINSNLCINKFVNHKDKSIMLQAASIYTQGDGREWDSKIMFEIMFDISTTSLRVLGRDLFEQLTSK
Protocol: The catalytic site of HIV-1 integrase is very close to that of the EcoRI restriction enzyme. The compounds which block both proteins are therefore catalytic inhibitors of integrase.
The linearized plasmid is incubated for 4 hours in the presence of 0.1 units of the EcoRI enzyme. The enzyme activity is monitored by the appearance of the cleavage products on 1.2% agarose gel.

[7] = tested on: ACH2 cells; test: toxicity on ACH2 cells, MTT biotransformation test; assay type: cell-based
Protocol: (§1) The toxicity of the compounds is tested by a biotransformation test of MTT to formazan by cellular mitochondrial dehydrogenases.
(§2) The compounds according to the present invention were tested on the late stages of the replication of HIV-1. The test is as follows: The ACH2 cells which integrated HIV-1 viral DNA were used. […] When the cells are used in the presence of TNF, they express the HIV virus from the integrated provirus. The production of viral particles is detected 24 hours after activation. The viral load in the supernatant is quantified by the ELISA p24 test.

[8] = tested on: HIV-1; test: late stages of HIV-1 replication in TNF-activated ACH2 cells, p24 ELISA; assay type: cell-based; conditions: 24 hours; for effect on the production of viral particles (in words): ACH2 cells
Protocol: as §2

[9] = tested on: CEM cells; test: toxicity on CEM cells, MTT biotransformation test; assay type: cell-based
Protocol: as §1

[10] = tested on: HIV-1; test: HIV-1 replication in CEM cells, infectious virus load on Hela β-gal CD4+ cells; assay type: cell-based; conditions: read-out: β-gal activity, 50% effectiveness on production of viral particles, 72 hours, HeLa β-gal colorimetric test, global antiviral effect
Source text: This is quantified in two of the following ways:

[11] = tested on: HIV-1; conditions: 72 hours, ELISA p24
Protocol: The activity test consists of putting the cells of an established lymphocyte line, CEM cells, in contact with a supernatant of infected cells containing the infectious virions. The test is carried out in the following manner: The CEM cells, cultured in suspension in RPMI medium supplemented with 10% of foetal calf serum, are infected with a viral supernatant with a multiplicity of infection of 0.5. After 2 hours of infection, the cells are washed twice with RPMI medium in a manner so as to eliminate the residual viral particles. Finally, the cells are replaced in RPMI medium containing the compound according to the invention. The viral load is evaluated after 72 hours of culture. This is quantified in two of the following ways:
1) The quantity of viral protein p24 is determined by an ELISA test.

**Q.** With `O=C(O)c1ccc2ccc(/C=C/c3cc(O)c(O)c(O)c3)nc2c1O` [Compound 3, 8-hydroxy-2-[2-[(3.4,5-trihydroxyphenyl)ethenyl]]7-quinoline carboxylic acid] as the compound, how does the pIC50 [1] read?
**A.** Its pIC50 is 6.49.

**Q.** What about the pIC50 [2] of the same compound?
**A.** The pIC50 was 6.51.

**Q.** And the pIC50 [3]?
**A.** The pIC50 was 7.25.

**Q.** And the “anti-integrase activity in the tests for in vitro activity (in words)” value [4]?
**A.** The value was “inhibit the three activites”.

**Q.** Which results are given for `O=C(O)c1ccc2ccc(/C=C/c3ccc(O)c(O)c3)nc2c1O` [Compound 1, 8-hydroxy-2-[2-[(3,4-dihydroxyphenyl)ethenyl]]7-quinoline carboxylic acid]?
**A.** reverse transcription inhibition (in words) [5]: no reverse transcription inhibition; cleavage by EcoRI (in words) [6]: strongly inhibited; MTT, toxicity by biotransformation [7]: >100 µM; effect on the production of viral particles (in words) ([8]; above 50 μM): slight inhibition; effect on the production of viral particles (in words) ([8]; concentrations up to 100 μM): No other significant effect; pIC50 ([8]; Human immunodeficiency virus 1, ACH-2, ACH2 cells activated by TNF, effect on the late stages, read-out: p24 test, inhibitory 50% concentration): < 4.00; MTT, toxicity by biotransformation [9]: >100 µM; toxicity according to the MTT test (in words) ([9]; up to 100 μM, maximum concentration tested): devoid of toxicity; anti-integrase activity in the tests for in vitro activity (in words) [4]: inhibit the three activites; pEC50 [10]: 5.40

**Q.** Which “anti-viral effect, production of viral particles / replication in CEM cells (in words)” value [11] does the source give for `O=C([O-])c1ccc2ccc(C=Cc3ccc(O)c(O)c3)nc2c1O.[Na+]` [Compound 2, sodium salt of 8-hydroxy-2-[2-[(3,4-dihydroxyphenyl)ethenyl]]7-quinoline-carboxylic acid] here?
**A.** Its value is “blocks the production of viral particules; also recorded: same anti-viral effect”.
